In article PMC7287031 (Pharmacology Research & Perspectives, 2020):
Like-named read-outs stand apart in the source and are kept apart here.

Columns and labels:
[1] = tested on: CYP enzymes that metabolise ribociclib in HLM (total metabolism; CYP-selective chemical inhibitors); test: Inhibition of [3H] ribociclib total metabolism in HLM by CYP- and FMO-selective inhibitors; type: in vitro ADME; settings: both, human, human liver microsomes, pH 7.4, probe [3H] ribociclib
CYP1A2 = settings: ref literature search, read-out: Reported Ki or IC50 values, median (and range); cited from earlier work
[2] = Rat ADME study: excretion, mass balance, metabolite profiling with radiolabeled ribociclib; type: in vivo; settings: rat
Method: (§1) ADME studies (including QWBA in pigmented and non‐pigmented rats) using radiolabeled ribociclib were conducted in rat and dog. Relevant institutional and national guides for the care and use of laboratory animals were followed.
(§2) Metabolite profiling was conducted on plasma, urine, bile, and feces samples in the rat and dog ADME studies, and further metabolite profiling on plasma and milk was conducted in a dedicated rat milk excretion study.
(§3) Plasma samples obtained from these studies were extracted with equal volumes of acetonitrile. Additional extractions of the protein pellet with acetonitrile and/or acetone were conducted as needed to maximize radioactivity recovery. Feces samples were initially extracted with two to four volumes of acetonitrile. Additional extractions of the pellet following centrifugation and removal of supernatant were conducted with acetonitrile and/or acetone as needed to maximize radioactivity recovery. Urine and bile samples were analyzed directly following centrifugation. Radioactivity recoveries following the centrifugation step were measured by LSC. Milk samples were extracted with two volumes of acetonitrile, following centrifugation and removal of supernatant, the pellets were re‐suspended in 100 µL of water and re‐extracted with 200 µL acetonitrile.
(§4) Metabolite profiling in the ADME studies was conducted using liquid chromatography‐mass spectrometry. Radioactivity profiles were generated by diversion of the majority of the post‐column flow into 96‐well yttrium silicate scintillation‐coated plates (Deepwell Lumaplates; Perkin Elmer Life and Analytical Sciences Inc), by means of Gilson FC204 fraction collectors (Gilson). Metabolites were identified by mass spectrometry (Waters QTOF operating under MassLynx 4.1) and, where feasible, by comparison with authentic reference standards.

[3] = Dog ADME study: excretion, mass balance, metabolite profiling with radiolabeled ribociclib; type: in vivo
Method: as §1, §2, §3, §4

[4] = Human ADME study: PK of ribociclib and LEQ803 in plasma and urine (validated bioanalytical assay); type: in vivo; settings: human plasma, bioanalytical assay, single oral 600 mg, N=6; for AUC(0-inf) / AUC(0-t) / Cmax / half-life: human, plasma, po, 600 mg
Method: Subjects continued to fast for 4 hours after drug administration.
Plasma aliquots at each time point were subjected to protein precipitation with three volumes of acetonitrile containing 0.1% (v:v) formic acid, followed by dilution and analysis by liquid chromatography‐tandem mass spectrometry in selected reaction monitor‐positive ion mode using heated electrospray ionization as the ionization technique. For urine aliquots, six volumes of acetonitrile containing 0.1% (v:v) formic acid were added, followed by dilution and analysis in the same way as for plasma. Components were separated using a YMC‐Triart C18 (2.0 x 30 mm, 1.9 µm) column (YMC Co. Ltd.). […] Mobile phase A was 0.1% formic acid in H2O while mobile phase B was 0.1% formic acid in ACN:Isopropanol 8:2 v:v.

[5] = Human ADME study: quantitative metabolite profiling in plasma; type: in vivo
Method: A plasma pool across the six healthy volunteers included in the study was prepared at the time points of 1 hour, 3 hours, 24 hours, and 48 hours post dose. For each time point, an equal volume of plasma was taken from each subject and combined. Plasma pool samples were processed by protein precipitation with acetonitrile. The protein pellet that resulted from precipitation with acetonitrile was washed further with additional aliquots of acetonitrile. All acetonitrile washes were combined and evaporated under nitrogen. For the 3‐ and 24‐hour plasma pools, the extraction procedure was slightly modified, including precipitation of the plasma proteins by addition of a 1:1 mixture of acetonitrile:methanol, followed by washing of the protein pellet with the same solvent mixture. All extracts were reconstituted with a solution of 15‐mM ammonium formate and acetonitrile (95:5 v/v). Extraction and reconstitution recoveries were measured in all four plasma samples in order to calculate and overall recovery. Quantitative metabolite profiling in plasma was accomplished using a Shimadzu Prominence high‐performance liquid chromatography (HPLC) system (Shimadzu, Columbia, MD, USA), coupled with fraction collection and analysis of total radioactivity in individual fractions using AMS (as described above). A second injection of each sample, conducted immediately after the first, was used to provide HPLC fractions for metabolite identification. The fractions identified as containing radioactivity from the AMS analysis were analyzed by HPLC coupled with high‐resolution mass spectrometry to identify the metabolites. The HPLC‐MS/MS methodology used is described below.

[6] = Human ADME study: quantitative metabolite profiling in urine and feces; type: in vivo; settings: pooled excreta n=6, from metabolite patterns (radio profiling)
Method: Average pools across the six subjects were also created by combining equal percentages (of total urine and feces excreted over the time interval) of the individual subject pools. Urine pools were analyzed directly for metabolite profiling (column recovery of a representative sample was measured), whereas feces pools were subjected to extraction. Specifically, to each aliquot of feces homogenate, two volumes of acetonitrile were added. After centrifugation, the pellet was washed further with an additional two volumes of acetonitrile. […] All washes were combined, evaporated under nitrogen, and reconstituted with a solution of 15‐mM ammonium formate (pH 3.5). This feces extract reconstitute was analyzed for metabolite profiling. Combined extraction and reconstitution (overall recovery) and column recovery were measured. […] The HPLC column used was a Phenomenex Kinetex, C18, 250 × 4.6 mm, equipped with a pre‐column of the same type (2.1 × 4.6 mm), which was placed in a column oven at 40°C. […] The HPLC gradient was as follows: initial conditions were 5% mobile phase B for 1 minute, then increased to 20% at 10 minutes post injection where it was held (isocratic) up to 20 minutes. […] The post column flow was directed to the fraction collector operated in a time‐slice mode and containing 96‐well Lumaplates (Perkin Elmer). The plates were dried at room temperature and the radioactivity was measured using a microplate scintillation counter model TopCount NXT (Perkin Elmer) instrument (up to 3 × 100‐minute counting time). […] Metabolites were identified during the same injections using data generated by the high‐resolution mass spectrometer. The molecular ions and key fragments of each drug‐related component were determined. Key fragments for each metabolite were derived from their product ion mass spectra and were used to determine the metabolite structures. Where possible, structural assignments were supported by exact mass measurement, comparison with synthetic standards and/or Hydrogen/Deuterium (H/D) exchange LC‐MS(/MS).

[7] = Contribution of metabolites to total pharmacological activity in human; settings: considering in vitro measurements and in vivo exposure
CYP2C9 = settings: cited from earlier work
FMO = biological target: FMO; parameters: method as in Zhou et al (2002); settings: ref Zhou et al (2002), read-out: Reported Ki or IC50 values; cited from earlier work
CYP2D6 = settings: ref literature search, read-out: Reported Ki or IC50 values, median (and range); cited from earlier work
CYP3A = settings: cited from earlier work
[8] = substrate: CN(C)C(=O)c1cc2cnc(Nc3ccc(N4CCNCC4)cn3)nc2n1C1CCCC1; test: Enzyme kinetics with recombinant CYP2J2 and scaling to HLM; type: in vitro ADME, human; settings: other: recombinant CYP2J2; 37.0 °C
Method: In vitro incubations were carried out in 100‐mM potassium phosphate buffer (pH 7.4) and 5‐mM MgCl2 with a total volume of 200 µL. Substrate and either human liver microsomes (HLM, BD Biosciences, mixed gender pool of n = 50) or recombinant human enzymes (BD Biosciences) were added and pre‐incubated for 3 minutes at 37°C. The reaction was started by addition of a fresh solution of NADPH (1 mmol/L final concentration). The samples were incubated at 37°C with agitation of 500 rpm. For incubations with CYP2A6, CYP2C9, CYP2C18, and CYP4A11, the phosphate buffer was replaced by TRIS buffer (100 mmol/L, pH 7.4) and for flavin‐containing monooxygenases (FMOs), a glycine buffer (50 mM, pH 9.5) was used.
The enzymatic reaction was stopped and the protein was precipitated by addition of an equal volume of methanol. After 30 min at −80°C, the samples were centrifuged at 30'000 x g for 15 min. The supernatant was withdrawn. Aliquots were analyzed by LSC and the supernatant was diluted with water to obtain a final solution containing less than 20% of the organic solvent. For samples of low substrate concentration, supernatants were evaporated to dryness under nitrogen, then re‐suspended in water containing less than 20% of methanol. Samples were analyzed by HPLC combined with radiodetection. […]

## Cc1nc2c([nH]1)c(=O)n(C)c(=O)n2Cc1ccco1 [Furafylline]
[1]
  IC50: > 10 µM
CYP1A2
  Ki: […]

## CNC(=O)c1cc2cnc(Nc3ccc(N4CCNCC4)cn3)nc2n1C1CCCC1 [M4 (LEQ803)]
[2]
  metabolite as % of plasma exposure to ribociclib: 38%
[3]
  metabolite as % of plasma exposure to ribociclib: 3%
[4]
  tlast, median (range): 252 (240‐312) h
[4]; read-out: tmax, median (range)
  Tmax: 2.5 h
[4]; read-out: AUCinf, arithmetic mean (CV %)
  AUC(0-inf): 2320 ng·h/mL
[4]; read-out: AUCinf, median
  AUC(0-inf): 2390 ng·h/mL
[4]; read-out: AUClast, arithmetic mean (CV %)
  AUC(0-t): 2160 ng·h/mL
[4]; read-out: AUClast, median
  AUC(0-t): 2240 ng·h/mL
[4]; read-out: Cmax, arithmetic mean (CV %)
  Cmax: 67.6 ng/mL
[4]; read-out: Cmax, median
  Cmax: 59 ng/mL
[4]; read-out: t½, arithmetic mean (CV %) (converted)
  half-life: 3.83 days
[4]; read-out: t½, median (converted)
  half-life: 3.26 days
[5]; human plasma
  ratio of AUC0-48 by validated bioanalytical assay to AUC0-48 from metabolite patterns: 0.813
[5]; human plasma pools n=6, from metabolite patterns
  AUC0-48h, % of total [14C]-AUC0-48: 8.60%
[5]; human plasma, AUC0-48
  metabolite exposure as % of ribociclib exposure: 19.8%
[6]
  Excretion (% of dose), Feces: 13.9 % of dose
  Excretion (% of dose), Urine: 3.74 % of dose
[6]; listed as M4
  Excretion (% of dose), Feces: approximately 13.9 % of dose
  Excretion (% of dose), Urine: approximately 3.74 % of dose
[7]
  contribution to total pharmacological activity in human: not to have a relevant contribution to total pharmacological activity

## Nc1ccc(S(=O)(=O)Nc2ccnn2-c2ccccc2)cc1 [Sulfaphenazole]
[1]
  IC50: > 5 µM
CYP2C9; read-out: Reported Ki or IC50 values, median (and range), ref literature search
  Ki: […]
CYP2C9; read-out: Reported Ki or IC50 values, ref Food and Drug Administration (2006)
  Ki: […]

## Cn1cc[nH]c1=S [Methimazole]
FMO
  Ki: 61 µM

B1: CYP2J2 (Homo sapiens) (protein)
chain: MLAAMGSLAAALWAVVHPRTLLLGTVAFLLAADFLKRRRPKNYPPGPWRLPFLGNFFLVDFEQSHLEVQLFVKKYGNLFSLELGDISAVLITGLPLIKEALIHMDQNFGNRPVTPMREHIFKKNGLIMSSGQAWKEQRRFTLTALRNFGLGKKSLEERIQEEAQHLTEAIKEENGQPFDPHFKINNAVSNIICSITFGERFEYQDSWFQQLLKLLDEVTYLEASKTCQLYNVFPWIMKFLPGPHQTLFSNWKKLKLFVSHMIDKHRKDWNPAETRDFIDAYLKEMSKHTGNPTSSFHEENLICSTLDLFFAGTETTSTTLRWALLYMALYPEIQEKVQAEIDRVIGQGQQPSTAARESMPYTNAVIHEVQRMGNIIPLNVPREVTVDTTLAGYHLPKGTMILTNLTALHRDPTEWATPDTFNPDHFLENGQFKKREAFMPFSIGKRACLGEQLARTELFIFFTSLMQKFTFRPPNNEKLSLKFRMGITISPVSHRLCAVPQV
notes: purchased BD Biosciences
[8]
  Km: 11.8 µmol/L
